Reference: patent US4122184A, “Benzimidazole insecticides” (priority 1977, dated 1978)

Columns and labels:
Format in all cases: in vivo
Corn Earworm = test: Field trial, contact poison test
How it was run: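 Each infested plant sits in a water-filled bottle to prevent wilting, and the test compound is then atomized onto it at 10 psi at various concentrations. Falling dead insects are collected, and mortality is rated 0 (0-10%) to 9 (91-100%) at up to 72 h.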

American Roach = test: Field trial (first summer), contact; conditions: 500 ppm
Buffalo Tree Hopper = test: Field trial (first summer), contact; conditions: 125 ppm
German Roach = test: Field trial (first summer), contact; conditions: 500 ppm
Tussock Moth = test: Field trial (first summer), contact; conditions: 750 ppm
Cabbage Looper = test: Field trial (first summer), stomach; conditions: 500 ppm
Variegated Cutworm = test: Field trial (first summer), stomach; conditions: 500 ppm
Asparagus Beetles Larvae = test: Field trial, stomach poison test
How it was run: (§1)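 Insects, five or ten per dish, are fed air-dried leaves that were dipped in or sprayed with the compound at two or three rates. Mortality is rated 0–9 at 24, 48 and 72 h and averaged per concentration.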

Fall Webworm = test: Field trial, stomach poison test
How it was run: as §1

Acute dermal toxicity = conditions: rabbit
Description: While the compounds of this invention resemble the organic phosphates in being toxic upon ingestion, they differ from the organic phosphates in having a low toxicity when applied to the skin. The following charts give the estimated acute oral and acute dermal toxicities of 2,6-bis(trifluoromethyl)-4-nitrobenzimidazole in several species of mammals.

For O=[N+]([O-])c1cc(C(F)(F)F)cc2nc(C(F)(F)F)[nH]c12 [A, 2,6-bis(trifluoromethyl)-4-nitrobenzimidazole], the average mortality rating (Corn Earworm; 62.5 ppm) was 0 (0-10 percent), the average mortality rating (Corn Earworm; 125 ppm) was 0 (0-10 percent) and the average mortality rating (Corn Earworm; 250 ppm) was 0 (0-10 percent). For the same compound, the average mortality rating (Corn Earworm; 500 ppm) was 0 (0-10 percent), the average mortality rating (Corn Earworm; 750 ppm) was 1 and the insect mortality rating (American Roach) was 9 (91-100 percent mortality). For the same compound, the insect mortality rating (Buffalo Tree Hopper) was 9 (91-100 percent mortality), the insect mortality rating (German Roach) was 8 and the insect mortality rating (Tussock Moth) was 9 (91-100 percent mortality). For the same compound, the insect mortality rating (Cabbage Looper) was 9 (91-100 percent mortality), the insect mortality rating (Variegated Cutworm) was 5 and the average mortality rating (Asparagus Beetles Larvae; 5 ppm) was 3. The average mortality rating (Asparagus Beetles Larvae; 10 ppm) was 7, the average mortality rating (Asparagus Beetles Larvae; 25 ppm) was 7 and the average mortality rating (Fall Webworm; 250 ppm) was 9 (91-100 percent mortality). The average mortality rating (Fall Webworm; 500 ppm) was 0 (0-10 percent), the average mortality rating (Fall Webworm; 750 ppm) was 0 (0-10 percent) and the average mortality rating (Fall Webworm; 1000 ppm) was 0 (0-10 percent). The LD50 (Acute dermal toxicity; in vivo, topical or ocular, male, read-out: Est. LD50) was greater than 500 mg/kg and the “Est. LD50” value (Acute dermal toxicity; female) was greater than 500 mg/kg.
